Results taken from ChEMBL document CHEMBL1129136, “Synthesis and evaluation of amino acid ester prodrugs of penciclovir” (Bioorg Med Chem Lett, 1996).

What was measured:
[1] = Half life was measured at pH 1.0 and at 37 degree Celsius temperature; format: ADME
[2] = Half life was measured […] at 37 degree Celsius temperature by HPLC assay using a c18 reversed-phase column.; format: ADME
[3] = Half life was measured at pH 7.4 and at 37 degree Celsius temperature; format: ADME
[4] = Half life was measured at pH 8.0 and at 37 degree Celsius temperature; format: ADME
[5] = tested on: Mus musculus; assay: Compound was tested to determine the total amount of penciclovir recovered in the urine over a 48-h period after a single oral dose of 0.2 mmol/kg.; format: functional
[6] = tested on: Vero; assay: Compound was tested for its antiviral activity against HSV-1(KOS strain) in vero cells; format: functional, cell-based; details: Chlorocebus sabaeus

SMILES	half-life [1] [h]	half-life [2] [h]	half-life [3] [h]	half-life [4] [h]	Dose (urinary recovery) [5] [%]	EC50 [6] [µM]
CCCC(=O)OCC(CCn1cnc2c(O)nc(N)nc21)COC(=O)[C@@H](N)C(C)C.Cl (some centres undefined)	33.3	122	18.4	14.1	29	42
CCC(C)[C@H](N)C(=O)OCC(CCn1cnc2c(O)nc(N)nc21)COC(=O)[C@@H](N)C(C)CC.Cl.Cl (some centres undefined)	> 168	52.9	11.4	9.8	9	42.3
CC(C)[C@H](N)C(=O)OCC(CCn1cnc2c(O)nc(N)nc21)COC(=O)[C@@H](N)C(C)C.Cl.Cl	> 168	30.9	6.7	6	25	25.5
CCC(C)[C@H](N)C(=O)OCC(CCn1cnc2c(O)nc(N)nc21)COC(=O)C(C)C.Cl (some centres undefined)	46.5	83.5	24.9	19.4	13	> 100
CCCC(=O)OCC(CCn1cnc2c(O)nc(N)nc21)COC(=O)[C@@H](N)C(C)CC.Cl (some centres undefined)	34	93.7	27	19.9	19	24.2
CCC(=O)OCC(CCn1cnc2c(O)nc(N)nc21)COC(=O)[C@@H](N)C(C)CC.Cl (some centres undefined)	19	83.5	25	19.9	20	> 100
CC(=O)OCC(CCn1cnc2cnc(N)nc21)COC(C)=O [FAMCICLOVIR]	–	–	–	–	33	> 100
Nc1nc(O)c2ncn(CCC(CO)CO)c2n1 [PENCICLOVIR]	–	–	–	–	9	8.1

Continued, in another order:

half-life [1] [h]	half-life [2] [h]	half-life [3] [h]	half-life [4] [h]	SMILES	Dose (urinary recovery) [5] [%]	EC50 [6] [µM]
47.5	120	19.1	14.4	CC(C)C(=O)OCC(CCn1cnc2c(O)nc(N)nc21)COC(=O)[C@@H](N)C(C)C.Cl (some centres undefined)	20	> 100
19.4	105	24.8	19.1	CCC(C)[C@H](N)C(=O)OCC(CCn1cnc2c(O)nc(N)nc21)COC(C)=O.Cl (some centres undefined)	15	> 100
19.2	104	17.3	13.6	CCC(=O)OCC(CCn1cnc2c(O)nc(N)nc21)COC(=O)[C@@H](N)C(C)C.Cl (some centres undefined)	25	> 100
19.4	108	13.2	13.2	CC(=O)OCC(CCn1cnc2c(O)nc(N)nc21)COC(=O)[C@@H](N)C(C)C.Cl (some centres undefined)	34	> 100
